Source: patent US20170045513A1, “METHODS OF DIAGNOSING CELIAC DISEASE USING IP-10” (ImmusanT, Inc., priority 2014, published 2017)
Non-standard residues stand in square brackets, D forms with d. pGlu = O=C1CC[C@@H](C(=O)O)N1

Legend:
Format in all cases: cell-based, human
gluten-reactive T cells [1] = assay: Overnight IFNγ ELISpot assay with fresh PBMC; details: for Percent of maximal response to individual gluten peptides, ELISp: after oral gluten challenge; for IFNγ ELISpot % max Mean: n = 5, blood after oral gluten challenge, individual peptides 5 μM (Peptide 2* of P14, Pepscan: 10 μg/mL (5.45 μM))
Summary of the method: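 Read-out is IFNγ spot-forming units per well, counted automatically after overnight culture of fresh PBMC (0.4 million/well) with single peptides (duplicate) or pools (triplicate). Donors: HLA-DQ2.5+ celiac patients on gluten-free diet, bled pre- and day 6 after 3-day oral gluten challenge.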

gluten-reactive T cells [2] = assay: Cytokine release assays taken together (IFNγ ELISpot, whole blood IFNγ and IP-10, in-tube IFNγ ELISA); details: blood collected after oral gluten challenge
Summary of the method: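 Whole blood with peptides (P3 0.05-50 μg/mL; P13/P14 0.025-25 μM; […]), 24 h, 37 °C; plasma IFNγ/IP-10 by multiplex beads. Tube assay: 1 mL blood with P3 or CEF, 24 h, plasma IFNγ ELISA; elevated if >7.2 pg/mL above medium tube and SI >1.25. ELISpot overnight on fresh PBMC.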

gluten-reactive T cells [3] = assay: 96-well plate whole blood cytokine release, IFNγ by MAGPIX multiplex bead assay; details: for Percent of maximal response to individual gluten peptides, IFNg: after oral gluten challenge; for IFNγ WB MAGPIX % max Mean: n = 8, blood after oral gluten challenge, individual peptides 5 μM (Peptide 2* of P14, Pepscan: 10 μg/mL (5.45 μM))

| Substance | IFNγ ELISpot response relative to Peptide 14 5 μM (gluten-reactive T cells [1]; Peptide 3 10 μg/mL (5.3 μM)) | Percent of maximal response to individual gluten peptides, ELISp (gluten-reactive T cells [1]; Subject 3, Max. 18 SFU) | Percent of maximal response to individual gluten peptides, ELISp (gluten-reactive T cells [1]; Subject 4, Max. 36 SFU) | Percent of maximal response to individual gluten peptides, ELISp (gluten-reactive T cells [1]; Subject 6, Max. 16 SFU) | Percent of maximal response to individual gluten peptides, ELISp (gluten-reactive T cells [1]; Subject 8, Max. 17 SFU) | Percent of maximal response to individual gluten peptides, ELISp (gluten-reactive T cells [1]; Subject 10, Max. 11 SFU) | IFNγ ELISpot % max Mean (gluten-reactive T cells [1]) [% max] | rank of activity among individual gluten peptides (gluten-reactive T cells [2]) | Percent of maximal response to individual gluten peptides, IFNg (gluten-reactive T cells [3]; Subject 2, Max. 116 pg/mL) | Percent of maximal response to individual gluten peptides, IFNg (gluten-reactive T cells [3]; Subject 3, Max. 799 pg/mL) | Percent of maximal response to individual gluten peptides, IFNg (gluten-reactive T cells [3]; Subject 4, Max. 136 pg/mL) | Percent of maximal response to individual gluten peptides, IFNg (gluten-reactive T cells [3]; Subject 6, Max. 72 pg/mL) | Percent of maximal response to individual gluten peptides, IFNg (gluten-reactive T cells [3]; Subject 7, Max. 17 pg/mL) | Percent of maximal response to individual gluten peptides, IFNg (gluten-reactive T cells [3]; Subject 8, Max. 47 pg/mL) | Percent of maximal response to individual gluten peptides, IFNg (gluten-reactive T cells [3]; Subject 9, Max. 67 pg/mL) | Percent of maximal response to individual gluten peptides, IFNg (gluten-reactive T cells [3]; Subject 10, Max. 229 pg/mL) | IFNγ WB MAGPIX % max Mean (gluten-reactive T cells [3]) [% max] | whole blood IFNγ release relative to that stimulated by Peptide 14 (gluten-reactive T cells [3]; whole blood incubations after oral gluten challenge) | activity relative to Peptide 14 in the cytokine release assays (gluten-reactive T cells [2]) |
| --- | --- | --- | --- | --- | --- | --- | --- | --- | --- | --- | --- | --- | --- | --- | --- | --- | --- | --- | --- |
| (pE)PEQPIPEQPQPYPQQ-amide ([pGlu]PEQPIPEQPQPYPQQ-NH2; SMILES CC[C@H](C)[C@H](NC(=O)[C@@H]1CCCN1C(=O)[C@H](CCC(N)=O)NC(=O)[C@H](CCC(=O)O)NC(=O)[C@@H]1CCCN1C(=O)[C@@H]1CCC(=O)N1)C(=O)N1CCC[C@H]1C(=O)N[C@@H](CCC(=O)O)C(=O)N[C@@H](CCC(N)=O)C(=O)N1CCC[C@H]1C(=O)N[C@@H](CCC(N)=O)C(=O)N1CCC[C@H]1C(=O)N[C@@H](Cc1ccc(O)cc1)C(=O)N1CCC[C@H]1C(=O)N[C@@H](CCC(N)=O)C(=O)N[C@@H](CCC(N)=O)C(N)=O) [Peptide 3] | only one-half | 50 % of max | 83 % of max | 69 % of max | 53 % of max | 9 % of max | 53 | second most active | 35 % of max | 92 % of max | 66 % of max | 63 % of max | 6 % of max | 89 % of max | 60 % of max | 81 % of max | 62 | one-third less | – |
| (pE)PQPYPEQPQPFPQQ-amide ([pGlu]PQPYPEQPQPFPQQ-NH2; SMILES NC(=O)CC[C@H](NC(=O)[C@H](CCC(N)=O)NC(=O)[C@@H]1CCCN1C(=O)[C@H](Cc1ccccc1)NC(=O)[C@@H]1CCCN1C(=O)[C@H](CCC(N)=O)NC(=O)[C@@H]1CCCN1C(=O)[C@H](CCC(N)=O)NC(=O)[C@H](CCC(=O)O)NC(=O)[C@@H]1CCCN1C(=O)[C@H](Cc1ccc(O)cc1)NC(=O)[C@@H]1CCCN1C(=O)[C@H](CCC(N)=O)NC(=O)[C@@H]1CCCN1C(=O)[C@@H]1CCC(=O)N1)C(N)=O) [Peptide 8] | – | 44 % of max | 64 % of max | 31 % of max | 18 % of max | 27 % of max | 37 | – | 35 % of max | 24 % of max | 39 % of max | 6 % of max | 0 % of max | 42 % of max | 5 % of max | 45 % of max | 25 | – | approximately one-half to one-fifth as active as Peptide 14 |
